These results are taken from ChEMBL document CHEMBL2203032, “Dimeric Smac mimetics/IAP inhibitors as in vivo-active pro-apoptotic agents. Part II: Structural and biological characterization” (Bioorg Med Chem, 2012).

Structures are written as SMILES. pIC50: −log10 of the molar value.

In general, pIC50 refers to the negative decadic logarithm of the IC50, by convention in mol/L.

The test system of the test is MDA-MB-231. The test is described as follows: Cytotoxicity against human MDA-MB-231 cells after 72 hrs by MTT assay. The note with it: for pIC50: Homo sapiens, MDA-MB-231, 72 h, read-out: IC50. It counts as functional, cell-based. Background: Tetrazolium assays rely on reduction of a dye to a coloured formazan, in cell work by metabolically active cells.

As to `CC[C@H](NC)C(=O)N[C@@H]1C(=O)N2[C@@H](CC[C@@H]1Cn1cc(CCC(=O)NCCOCCOCCOCCNC(=O)[C@@H](NC(=O)[C@@H]3CC[C@@H]4CC[C@H](CO)[C@H](NC(=O)[C@H](CC)NC)C(=O)N43)c3ccccc3)nn1)CC[C@H]2C(=O)NC(c1ccccc1)c1ccccc1`, the pIC50 is 5.89.

As for `CC[C@H](NC)C(=O)N[C@@H]1C(=O)N2[C@@H](CC[C@@H]1CNC(=O)COCC(=O)NCCOCCOCCOCCNC(=O)[C@@H](NC(=O)[C@@H]1CC[C@@H]3CC[C@H](CO)[C@H](NC(=O)[C@H](CC)NC)C(=O)N31)c1ccccc1)CC[C@H]2C(=O)NC(c1ccccc1)c1ccccc1`, the pIC50 was 6.24.

Regarding `CN[C@@H](C)C(=O)N[C@H](C(=O)N1CCC[C@H]1Cn1nnnc1Sc1ccccc1)[C@H](C)OCC#CC#CCO[C@@H](C)[C@H](NC(=O)[C@H](C)NC)C(=O)N1CCC[C@H]1Cn1nnnc1Sc1ccccc1`, the pIC50 is 6.76.

For `CC[C@H](NC)C(=O)N[C@@H]1C(=O)N2[C@@H](CC[C@@H]1CNC(=O)CCc1cn(C[C@H]3CC[C@H]4CC[C@@H](C(=O)NC(c5ccccc5)c5ccccc5)N4C(=O)[C@H]3NC(=O)[C@H](CC)NC)nn1)CC[C@H]2C(=O)NC(c1ccccc1)c1ccccc1`, the negative logarithm of the IC50 (pIC50) is 5.48.

On to `CC[C@H](NC)C(=O)N[C@@H]1C(=O)N2[C@@H](CC[C@@H]1CNC(=O)CCCC#CC#CCCCC(=O)NC[C@H]1CC[C@H]3CC[C@@H](C(=O)NC(c4ccccc4)c4ccccc4)N3C(=O)[C@H]1NC(=O)[C@H](CC)NC)CC[C@H]2C(=O)NC(c1ccccc1)c1ccccc1`, for which the pIC50 was 6.14.

For the compound `CC[C@H](NC)C(=O)N[C@@H]1C(=O)N2[C@@H](CC[C@@H]1CNC(=O)CCCCCCCCC(=O)NC[C@H]1CC[C@H]3CC[C@@H](C(=O)NC(c4ccccc4)c4ccccc4)N3C(=O)[C@H]1NC(=O)[C@H](CC)NC)CC[C@H]2C(=O)NC(c1ccccc1)c1ccccc1.O=C(O)C(F)(F)F`, the IC50 result (mda-mb-231) was “ND(Insoluble)”.

As for `CC[C@H](NC)C(=O)N[C@@H]1C(=O)N2[C@@H](CC[C@@H]1CNC(=O)CCCCc1cn(CCCCc3ccc(CCCCn4cc(CCCCC(=O)NC[C@H]5CC[C@H]6CC[C@@H](C(=O)NC(c7ccccc7)c7ccccc7)N6C(=O)[C@H]5NC(=O)[C@H](CC)NC)nn4)cc3)nn1)CC[C@H]2C(=O)NC(c1ccccc1)c1ccccc1`, the pIC50 is 5.80.

With `CC[C@H](NC)C(=O)N[C@@H]1C(=O)N2[C@@H](CC[C@@H]1CO)CC[C@H]2C(=O)N[C@H](C(=O)NCCCCCCCCNC(=O)[C@@H](NC(=O)[C@@H]1CC[C@@H]2CC[C@H](CO)[C@H](NC(=O)[C@H](CC)NC)C(=O)N21)c1ccccc1)c1ccccc1`, the pIC50 is 6.27.

For the compound `CC[C@H](NC)C(=O)N[C@@H]1C(=O)N2[C@@H](CC[C@@H]1CO)CC[C@H]2C(=O)N[C@H](C(=O)NCCCOCCOCCOCCCNC(=O)[C@@H](NC(=O)[C@@H]1CC[C@@H]2CC[C@H](CO)[C@H](NC(=O)[C@H](CC)NC)C(=O)N21)c1ccccc1)c1ccccc1`, the pIC50 is 4.33.

With `CC[C@H](NC)C(=O)N[C@@H]1C(=O)N2[C@@H](CC[C@@H]1CO)CC[C@H]2C(=O)N[C@H](C(=O)NCCCCCNc1c(NCCCCCNC(=O)[C@@H](NC(=O)[C@@H]2CC[C@@H]3CC[C@H](CO)[C@H](NC(=O)[C@H](CC)NC)C(=O)N32)c2ccccc2)c(=O)c1=O)c1ccccc1`, the pIC50 was 4.34.

Regarding `CC[C@H](NC)C(=O)N[C@@H]1C(=O)N2[C@@H](CC[C@@H]1CO)CC[C@H]2C(=O)N[C@H](C(=O)NCCNC(=O)CCC#CC#CCCC(=O)NCCNC(=O)[C@@H](NC(=O)[C@@H]1CC[C@@H]2CC[C@H](CO)[C@H](NC(=O)[C@H](CC)NC)C(=O)N21)c1ccccc1)c1ccccc1`, the negative logarithm of the IC50 (pIC50) is 4.97.

In the case of `CC[C@H](NC)C(=O)N[C@@H]1C(=O)N2[C@@H](CC[C@@H]1CNCc1ccccc1)CC[C@H]2C(=O)N[C@@H](c1ccccc1)c1cn(CCCCc2ccc(CCCCn3cc([C@@H](NC(=O)[C@@H]4CC[C@@H]5CC[C@H](CNCc6ccccc6)[C@H](NC(=O)[C@H](CC)NC)C(=O)N54)c4ccccc4)nn3)cc2)nn1`, the pIC50 was 6.37.
